Assay [1] addresses human vasopressin (hV2) receptor (Homo sapiens, UniProt P30518). Put plainly: luciferase-based transcriptional reporter gene assay expressing the human vasopressin (hV2) receptor. The following applies: for Selectivity hV2/hOT: EC50 ratio hV2/hOT.
Description: (§1) Agonist activity of compounds on the hOT receptor was determined in a transcriptional reporter gene assay by transiently transfecting a hOT receptor expression DNA into a Chinese Hamster Ovary (CHO) cell line in concert with a reporter DNA containing intracellular calcium responsive promoter elements regulating expression of firefly luciferase.
(§2) The EC50 value given is the geometric mean expressed in nanomol/l (nM). Selectivity values are given as EC50 ratios.
In another assay the target is T1, hOT receptor (Homo sapiens, UniProt P30559).
T1 sequence (P30559 1-389): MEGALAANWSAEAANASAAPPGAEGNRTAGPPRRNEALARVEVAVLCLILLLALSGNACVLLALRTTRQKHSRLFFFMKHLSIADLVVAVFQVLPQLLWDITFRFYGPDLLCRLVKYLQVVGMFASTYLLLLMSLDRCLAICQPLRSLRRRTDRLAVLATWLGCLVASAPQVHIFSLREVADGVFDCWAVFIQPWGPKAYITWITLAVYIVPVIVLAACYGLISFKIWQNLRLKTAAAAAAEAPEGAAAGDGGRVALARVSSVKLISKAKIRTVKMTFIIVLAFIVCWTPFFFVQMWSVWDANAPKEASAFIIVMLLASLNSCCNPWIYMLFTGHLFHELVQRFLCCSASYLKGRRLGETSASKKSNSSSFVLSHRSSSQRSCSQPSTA
Put plainly: transcriptional reporter gene assay (luciferase), agonist activity on hOT receptor in transfected CHO cells. In general terms: Reporter assays use an easily measured gene product as a stand-in for the process of interest.

Starred links: 1 amine or outer side, 2 acyl side, 3 side chain; linkers in the order of their positions; H or OH if unused. Positions of bridges follow the written chain, without caps; N, C: chain ends. Non-standard residues stand in square brackets, D forms with d. Residues, ends and D or L forms follow the SMILES beside them. N(3-phenylpropyl)Gly = O=C(O)CNCCCc1ccccc1; Phe(4-Et) = CCc1ccc(C[C@H](N)C(=O)O)cc1; X1 = O=C(CN(Cc1ccc(F)c(F)c1)[*:1])[*:2]; X4 = Cc1ccc(CCN(CC(=O)[*:2])[*:1])cc1; cisHyp = O=C(O)[C@@H]1C[C@H](O)CN1; X2 = O=C(CCC[*:2])[*:1]; Mpa = O=C(O)CCS

What is called EC50 is the midpoint of the concentration-response curve. The low end stands for a more potent agent, the high end for a less potent agent.

human vasopressin (hV2) receptor, sequence (P30518 whole entry): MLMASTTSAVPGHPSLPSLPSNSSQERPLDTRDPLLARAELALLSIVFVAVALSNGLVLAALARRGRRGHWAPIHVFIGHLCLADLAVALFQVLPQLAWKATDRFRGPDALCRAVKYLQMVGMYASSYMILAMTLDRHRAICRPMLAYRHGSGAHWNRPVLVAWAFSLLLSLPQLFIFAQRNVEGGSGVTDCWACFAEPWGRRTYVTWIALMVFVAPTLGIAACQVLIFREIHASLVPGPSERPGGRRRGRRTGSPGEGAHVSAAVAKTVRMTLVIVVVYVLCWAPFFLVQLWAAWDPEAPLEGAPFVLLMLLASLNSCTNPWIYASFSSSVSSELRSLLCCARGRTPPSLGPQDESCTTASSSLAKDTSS
Description for hOT receptor: as §1, §2

Take `CCc1ccc(C[C@@H]2NC(=O)CCCSC[C@@H](C(=O)N3C[C@@H](O)C[C@H]3C(=O)N[C@@H](CC(C)C)C(=O)NCC(N)=O)NC(=O)[C@H](CC(N)=O)NC(=O)[C@H](CCC(N)=O)NC(=O)[C@H]([C@@H](C)CC)NC2=O)cc1` [Compound 6] ([Phe(4-Et)]IQNC[cisHyp]LG-NH2; linker N-5 via X2): the EC50 in assay [1] came out at 39.9 nM; at hOT receptor, 0.064 nM. The “Selectivity hV2/hOT” value in assay [1] worked out at 629.
The corresponding values for `CC[C@H](C)[C@@H]1NC(=O)[C@H](Cc2ccc(O)cc2)NC(=O)CCSSC[C@@H](C(=O)N(CC(=O)N[C@@H](CC(C)C)C(=O)NCC(N)=O)Cc2ccc(F)c(F)c2)NC(=O)[C@H](CC(N)=O)NC(=O)[C@H](CCC(N)=O)NC1=O` [Compound 11] ([Mpa]YIQNC[X1]LG-NH2; disulfide 1-6) are 58.5 nM, 0.026 nM and 2217.
The corresponding values for `CC[C@H](C)[C@@H]1NC(=O)[C@H](Cc2ccc(O)cc2)NC(=O)CCSSC[C@@H](C(=O)N(CCc2ccc(C)cc2)CC(=O)N[C@@H](CC(C)C)C(=O)NCC(N)=O)NC(=O)[C@H](CC(N)=O)NC(=O)[C@H](CCC(N)=O)NC1=O` [Compound 15] ([Mpa]YIQNC[X4]LG-NH2; disulfide 1-6) are 102 nM, 0.04 nM and 2533.
For `CC[C@H](C)[C@@H]1NC(=O)[C@H](Cc2ccc(O)cc2)NC(=O)CCSSC[C@@H](C(=O)N(CCCc2ccccc2)CC(=O)N[C@@H](CC(C)C)C(=O)NCC(N)=O)NC(=O)[C@H](CC(N)=O)NC(=O)[C@H](CCC(N)=O)NC1=O` [Compound 25] ([Mpa]YIQNC[N(3-phenylpropyl)Gly]LG-NH2; disulfide 1-6), in that order: 159 nM, 0.058 nM and 2736.

The values above are taken from patent publication US8673841B2 (Ferring B.V., priority 2008, dated 2014).
